From patent publication US20210371385A1, “POLYMORPHIC AND AMORPHOUS FORMS OF ISOQUINOLINONE AND METHODS OF USE THEREOF” (Sojournix, Inc., priority 2018, published 2021)
In brackets after ≈: the same amount, converted by molar mass. Several values for one entry are separate records, joined by “and”; a condition that tells them apart may be missing. Equal entries are not always repeated. Entries after “also recorded” stand apart in the source; their conditions may differ.

Columns and labels:
Assay type in all cases: physicochemical
[1] = Intrinsic Dissolution Rate (IDR); details: 0.001 M HCl pH 3.0; pressed tablet
Procedure: The Intrinsic Dissolution Rate (IDR) was calculated for a beta polymorph form of SJB-01. A tablet of the compound was pressed and put into a dissolution chamber. It was subsequently measured how fast the substance was dissolved from the surface into the solvent. Initially, the experiment was performed in a standard buffer (0.001 M HCl pH 3.0), reflecting the stomach conditions at fastened state.
Due to the high impact of bile components on solubilisation of SJB-01, IDR was performed in FeSSIF media, reflecting the fed-state in humans.

[2] = Solubility in water and simulated fluids (FaSSIF, FaSSGF) at 37 °C; details: for solubility at 24 h / Solubility: 37 °C; for solubility at 24 h: thermodynamic from solid; for Solubility in FaSSIF: fasted state simulated intestinal fluid
From the text: The solids were slurried in the respective solution for 24 hrs then the liquid isolated by syringe filtration for analysis by HPLC. The data are summarized in Table 19; the solubility of all forms in all solutions is on the microgram scale. Essentially, none of these are substantially advantageous over the other ones in terms of equilibrium solubility.

[3] = Solubility in vehicles/excipients for in vivo and toxicological studies; details: for Maximum single dose in solubilized form: dogs, 100% PEG 400, maximum volume 1-2 ml/kg; for Maximum dose in solubilized form, 100% PEG 400 / Maximum dose in solubilized form, Gelucire:PEG 400 90:10: rats; for Maximum dose in solubilized form, 100% PEG 400: 5 ml/kg is maximum volume dose; for Maximum dose in solubilized form, Gelucire:PEG 400 90:10: 10 ml/kg is maximum volume dose
Procedure: In addition, the solubility of SJB-01 was investigated in a large number of vehicles for use in in vivo pharmacological studies, as well as toxicological evaluation of the compound.
Formulations for toxicological evaluation of SJB-01 were considered. The highest solubility was obtained with 100% PEG 400 and a mixture of Gelucire and PEG 400. Since a formulation with Gelucire:PEG required increased handling time, including dosing at ˜45° C., 100% PEG 400 was chosen for formulation purpose in the early toxicological evaluation including mini-MTD (maximum tolerated dose) and a 14 days toxicological dosing study. The maximum dose reached was 140 mg/kg-the highest possible dose achievable with PEG 400 as vehicle. […] From a formulation perspective, this can only be done by using Gelucire:PEG as a vehicle, under the assumption that a solution will lead to a higher bioavailability than dosing the compound in a PEG 400 suspension. In the table below, the maximum dose of SJB-01 given on a solubilized form is provided, taking into account the tolerated dose of the vehicle as well.

[4] = Dynamic vapor sorption (DVS)
Procedure: Pattern β was analyzed using DVS with two sorption/desorption cycles. The solid reversibly picked-up about 0.12% between 2-95% relative humidity at 25° C.
Dynamic Vapor Sorption (DVS) was done using a DVS Intrinsic 1. The sample is loaded into a sample pan and suspended from a microbalance. A typical sample mass for DVS measurement is 25 mg. Nitrogen gas bubbled through distilled water provides the desired relative humidity. A typical measurement comprises the steps:
2. 50% to 2%. (50%, 40%, 30%, 20%, 10% and 2%)-Hold minimum of 5 mins and maximum of 60 minutes at each humidity. The pass criteria is less than 0.002% change.
3. 2% to 95% (2%, 10%, 20%, 30%, 40%, 50%, 60%, 70%, 80%, 90%, 95%)-Hold minimum of 5 mins and maximum of 60 minutes at each humidity. The pass criteria is less than 0.002% change.
4. 95% to 2% (95%, 80%, 70%, 60%, 50%, 40%, 30%, 20%, 10%, 2%)-Hold minimum of 5 mins and maximum of 60 minutes at each humidity. The pass criteria is less than 0.002% change.
5. 2% to 50% (2%, 10%, 20%, 30%, 40%, 50%)-Hold minimum of 5 mins and maximum of 60 minutes at each humidity. The pass criteria is less than 0.002% change.

[5] = Thermodynamic equilibrium aqueous solubility; details: pH 7.4
[6] = Stability in high humidity (40 °C/75% RH, XRPD); details: one week
Procedure: Patterns α (L100142-37-5), β (L100142-1-1) and free flowing amorphous solid (L100142-19-1) SJB-01 were exposed to a 40° C./75% RH environment for one week.

[7] = Solubility in buffered solutions vs pH at 37 °C (HPLC); details: aqueous buffers, aqueous buffer, thermodynamic from solid; about 37 °C; read-out: Solubility in buffered solution (range)
Procedure: Aqueous buffers between pH 1.3 and 7.4 (13 total) were prepared and 3 mL added to about 15 mg of SJB-01 (L100149-44-1, jet-milled). These slurries were stirred on a hot-plate at 37° C. for 24 hours. Sonication and vortexting was employed within the first 2 hours of stirring to ensure thorough mixing and wetting of the solids as there was a clear tendency for them to clump and float at the liquid surface. After sonication and vortexing there was substantial solids suspended in solution (slurry) along with the solids that floated on top. At 24 hours, the samples were collected by syringe filtration of about 2 mL of solution. The first 1 mL of solution that passed through the filter was discarded and the second 0.5-1 mL of solution was used for HPLC analysis. The samples were injected into HPLC without dilution.
SJB-01 (L100149-44-1) was weighed directly into volumetric flasks and filled to volume with ACN:water (6:4 vol.) to build a calibration curve. […] Details for the HPLC method used are given in Table 34; these follow the parameters used for previous dissolution study.

[8] = Solid form stability at ambient conditions by XRPD; details: for Solid form stability: ambient conditions / room temperature, XRPD
[9] = Solubility in bio-relevant media
Procedure: The solubility of the beta polymorph form of SJB-01 was further examined in bio-relevant media. The fasted-state small intestinal fluid (FaSSIF) contained 3 mM sodium taurocholate (bile acid), 0.75 mM lecithin (phosphorlipid) and phosphate buffer to maintain a pH of 6.0. The fed-state small intestinal fluid (FeSSIF) contained 5-fold higher concentration of sodium taurocholate and lecithin and thus higher capacity for micellar solubilization of the compound. The pH in the FeSSIF buffer was maintained to 5.0 with acetate buffer.

[10] = about 37 °C, listed as beta form
[11] = about 37 °C, listed as amorphous form

CCNn1c(C)c(C(=O)N[C@H](c2ccccc2)C2CC2)c2cccc(F)c2c1=O [Pattern β, 2-ethylamino-8-fluoro-3-methyl-1-oxo-1,2-dihydro-isoquinoline-4-carboxylic acid ((S)-cyclopropyl-phenyl-methyl)-amide]
Intrinsic Dissolution Rate (IDR) [1]: 0.002 mg/cm^2·min | solubility at 24 h ([2]; FaSSGF (fasted state simulated gastric fluid), fassgf or other biorelevant, FaSSGF, 24 hrs, read-out: Solubility): 6 µg/mL (≈ 15.2 µM) | Solubility ([2]; FaSSIF, 24 hrs): 8 µg/mL (≈ 20.3 µM) | Solubility in water and simulated fluids (range) [2, 10]: 5 to 8 µg/mL and 6 to 10 µg/mL | Solubility in FaSSIF [2, 10]: 8 µg/mL (≈ 20.3 µM) | solubility at 24 h ([2]; water, water, Water, 24 hrs, read-out: Solubility): 5 µg/mL (≈ 12.7 µM) | Solubility in 100% PEG 400 [3]: 22 mg base/ml | Solubility in Gelucire:PEG 400 90:10 [3]: 26 mg base/ml | Maximum single dose in solubilized form ([3]; listed as β-form): 20 to 40 mg/kg | Maximum dose in solubilized form, 100% PEG 400 ([3]; listed as β-form): 100 mg/kg | Maximum dose in solubilized form, Gelucire:PEG 400 90:10 ([3]; listed as β-form): 230 mg/kg | Hygroscopicity ([4]; DVS, two sorption/desorption cycles): not hygroscopic | Thermodynamic equilibrium solubility [5]: ~8 μg base/ml | Solid form by XRPD after humidity exposure [6]: remained unchanged | solubility at 24 h [7]: 6.4 to 9.8 µg/mL (≈ 16.3 to 24.9 µM) | Solid form stability [8]: most stable polymorph | Solubility in bio-relevant media ([9]; 0.001M HCl pH 3.0): 8 μg base/ml | Solubility in bio-relevant media ([9]; FaSSIF, pH 6.0): 11 μg base/ml | Solubility in bio-relevant media ([9]; FeSSIF, pH 5.0): 19 μg base/ml

CCNn1c(C)c(C(=O)N[C@H](c2ccccc2)C2CC2)c2cccc(F)c2c1=O [Pattern α, 2-ethylamino-8-fluoro-3-methyl-1-oxo-1,2-dihydro-isoquinoline-4-carboxylic acid ((S)-cyclopropyl-phenyl-methyl)-amide]
Solubility ([2]; FaSSGF, 24 hrs): 7 µg/mL (≈ 17.8 µM) | solubility at 24 h ([2]; FaSSGF, fassgf or other biorelevant, fasted state simulated gastric fluid, about 37 °C, read-out: Solubility in FaSSGF): 7 µg/mL (≈ 17.8 µM) | Solubility ([2]; FaSSIF, 24 hrs): 8 µg/mL (≈ 20.3 µM) | Solubility in FaSSIF ([2]; about 37 °C, listed as alpha form): 8 µg/mL (≈ 20.3 µM) | solubility at 24 h ([2]; water, water, water, about 37 °C, read-out: Solubility in water): 6 µg/mL (≈ 15.2 µM) | solubility at 24 h ([2]; water, FaSSIF and FaSSGF, about 37 °C, read-out: Solubility in water and simulated fluids (range)): 6 to 8 µg/mL (≈ 15.2 to 20.3 µM) | Solubility in 100% PEG 400 [3]: 32 mg base/ml | Solubility in Gelucire:PEG 400 90:10 [3]: 40 mg base/ml | Maximum single dose in solubilized form ([3]; listed as α-form): 28 to 56 mg/kg | Maximum dose in solubilized form, 100% PEG 400 ([3]; listed as α-form): 140 mg/kg | Maximum dose in solubilized form, Gelucire:PEG 400 90:10 ([3]; listed as α-form): 360 mg/kg | Moisture pick-up by DVS ([4]; 2-95% relative humidity, 25 °C): about 0.6% | solubility thermodynamic ([5]; aqueous medium, aqueous buffer, thermodynamic from solid): ~14 µg/mL (≈ 35.6 µM) | Solid form by XRPD after humidity exposure [6]: converted considerably to Pattern β | Solid form stability [8]: not stable; also recorded: less stable than Pattern β

CCNn1c(C)c(C(=O)N[C@H](c2ccccc2)C2CC2)c2cccc(F)c2c1=O [Amorphous, 2-ethylamino-8-fluoro-3-methyl-1-oxo-1,2-dihydro-isoquinoline-4-carboxylic acid ((S)-cyclopropyl-phenyl-methyl)-amide]
Solubility ([2]; FaSSGF, 24 hrs): 6 µg/mL (≈ 15.2 µM) | Solubility ([2]; FaSSIF, 24 hrs): 18 µg/mL (≈ 45.7 µM) | Solubility ([2]; Water, 24 hrs): 5 µg/mL (≈ 12.7 µM) | Solubility in water and simulated fluids (range) [2, 11]: 5 to 18 µg/mL | Solubility in FaSSGF ([2]; fasted state simulated gastric fluid, about 37 °C, listed as amorphous form): 6 µg/mL (≈ 15.2 µM) | Solubility in FaSSIF [2, 11]: 18 µg/mL (≈ 45.7 µM) | Solubility in water ([2]; water, about 37 °C, listed as amorphous form): 5 µg/mL (≈ 12.7 µM) | Solid form by XRPD after humidity exposure ([6]; listed as amorphous solid): converted considerably to Pattern β | Solid form stability ([8]; listed as powdered amorphous freebase): still showed an amorphous pattern | Time amorphous form remained stable ([8]; ambient environment): at least 17 days
